{
  "source": "the supplement of paper PMC10307832",
  "assay_in_all_cases": "relative viability (nuclei count vs DMSO), 5 days (fraction); higher = more cells survive",
  "key": {"NCI-H650": {"system": "NCI-H650", "outline": "(§1)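 A single step with final 0.05% Triton X-100, 1% formaldehyde and 1 ug/ml Hoechst fixed the cells and stained nuclei 5 days after treatment. Lung cancer cell lines in 1536-well plates had been treated by pin tool the day after seeding with one drug alone or a fixed anchor-drug dose plus five library-drug doses (not always all listed) in √10 steps, and nuclei were counted on 4× images. Relative viability is the ratio of nuclei in treated wells to nuclei in vehicle wells, taken as the median of duplicate plates.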"}, "201T": {"system": "201T", "outline": "as §1"}, "COR-L23": {"system": "COR-L23", "outline": "as §1"}, "NCI-H838": {"system": "NCI-H838", "outline": "as §1"}, "NCI-H1666": {"system": "NCI-H1666", "outline": "as §1"}, "NCI-H441": {"system": "NCI-H441", "outline": "as §1"}, "HARA": {"system": "HARA", "outline": "as §1"}, "A-427": {"system": "A-427", "outline": "as §1"}, "EKVX": {"system": "EKVX", "outline": "as §1"}, "NCI-H1975": {"system": "NCI-H1975", "outline": "as §1"}, "HCC-827": {"system": "HCC-827", "outline": "as §1"}, "NCI-H596": {"system": "NCI-H596", "outline": "as §1"}, "HCC-15": {"system": "HCC-15", "outline": "as §1"}, "HCC-44": {"system": "HCC-44", "outline": "as §1"}, "NCI-H23": {"system": "NCI-H23", "outline": "as §1"}, "NCI-H1792": {"system": "NCI-H1792", "outline": "as §1"}, "COR-L 105": {"system": "COR-L 105", "outline": "as §1"}, "NCI-H1437": {"system": "NCI-H1437", "outline": "as §1"}, "BEN": {"system": "BEN", "outline": "as §1"}},
  "data": [
    {"smiles": "O=C(O)c1ccc(-c2c[nH]c3ncc(-c4ccccc4)cc23)cc1C1CCCC1", "note": "+ CC(C)C[C@H](NC(=O)[C@H](Cc1ccccc1)NC(=O)c1cnccn1)B(O)O [Bortezomib] (partner 0.002 µM)", "values": [
      {"measurement": "relative viability", "setting": "NCI-H650; first compound 0.04 µM", "result": 0.746},
      {"measurement": "relative viability", "setting": "NCI-H650; first compound 0.1265 µM", "result": 0.895},
      {"measurement": "relative viability", "setting": "NCI-H650; first compound 0.4 µM", "result": 0.858},
      {"measurement": "relative viability", "setting": "NCI-H650; first compound 1.265 µM", "result": 0.5},
      {"measurement": "relative viability", "setting": "201T; first compound 0.04 µM", "result": 1.08},
      {"measurement": "relative viability", "setting": "201T; first compound 0.1265 µM", "result": 1.08},
      {"measurement": "relative viability", "setting": "201T; first compound 0.4 µM", "result": 1.12},
      {"measurement": "relative viability", "setting": "201T; first compound 1.265 µM", "result": 1.02},
      {"measurement": "relative viability", "setting": "COR-L23; first compound 0.04 µM", "result": 0.962},
      {"measurement": "relative viability", "setting": "COR-L23; first compound 0.1265 µM", "result": 1.16},
      {"measurement": "relative viability", "setting": "COR-L23; first compound 0.4 µM", "result": 0.906},
      {"measurement": "relative viability", "setting": "COR-L23; first compound 1.265 µM", "result": 0.622},
      {"measurement": "relative viability", "setting": "NCI-H838; first compound 0.04 µM", "result": 0.814},
      {"measurement": "relative viability", "setting": "NCI-H838; first compound 0.1265 µM", "result": 1.32},
      {"measurement": "relative viability", "setting": "NCI-H838; first compound 0.4 µM", "result": 0.703},
      {"measurement": "relative viability", "setting": "NCI-H838; first compound 1.265 µM", "result": 0.714},
      {"measurement": "relative viability", "setting": "NCI-H1666; first compound 0.04 µM", "result": 0.86},
      {"measurement": "relative viability", "setting": "NCI-H1666; first compound 0.1265 µM", "result": 0.813},
      {"measurement": "relative viability", "setting": "NCI-H1666; first compound 0.4 µM", "result": 0.739},
      {"measurement": "relative viability", "setting": "NCI-H1666; first compound 1.265 µM", "result": 0.304},
      {"measurement": "relative viability", "setting": "NCI-H441; first compound 0.04 µM", "result": 0.587},
      {"measurement": "relative viability", "setting": "NCI-H441; first compound 0.1265 µM", "result": 0.59},
      {"measurement": "relative viability", "setting": "NCI-H441; first compound 0.4 µM", "result": 0.246},
      {"measurement": "relative viability", "setting": "NCI-H441; first compound 1.265 µM", "result": 0.289},
      {"measurement": "relative viability", "setting": "HARA; first compound 0.04 µM", "result": 1.05},
      {"measurement": "relative viability", "setting": "HARA; first compound 0.1265 µM", "result": 1.28},
      {"measurement": "relative viability", "setting": "HARA; first compound 0.4 µM", "result": 1.1},
      {"measurement": "relative viability", "setting": "HARA; first compound 1.265 µM", "result": 1.08},
      {"measurement": "relative viability", "setting": "A-427; first compound 0.04 µM", "result": 0.947},
      {"measurement": "relative viability", "setting": "A-427; first compound 0.1265 µM", "result": 0.949},
      {"measurement": "relative viability", "setting": "A-427; first compound 0.4 µM", "result": 1.07},
      {"measurement": "relative viability", "setting": "A-427; first compound 1.265 µM", "result": 0.849},
      {"measurement": "relative viability", "setting": "EKVX; first compound 0.04 µM", "result": 1.01},
      {"measurement": "relative viability", "setting": "EKVX; first compound 0.1265 µM", "result": 0.873},
      {"measurement": "relative viability", "setting": "EKVX; first compound 0.4 µM", "result": 1.03},
      {"measurement": "relative viability", "setting": "EKVX; first compound 1.265 µM", "result": 0.728},
      {"measurement": "relative viability", "setting": "NCI-H1975; first compound 0.04 µM", "result": 0.344},
      {"measurement": "relative viability", "setting": "NCI-H1975; first compound 0.1265 µM", "result": 0.391},
      {"measurement": "relative viability", "setting": "NCI-H1975; first compound 0.4 µM", "result": 0.335},
      {"measurement": "relative viability", "setting": "NCI-H1975; first compound 1.265 µM", "result": 0.195},
      {"measurement": "relative viability", "setting": "HCC-827; first compound 0.04 µM", "result": 0.982},
      {"measurement": "relative viability", "setting": "HCC-827; first compound 0.1265 µM", "result": 1.18},
      {"measurement": "relative viability", "setting": "HCC-827; first compound 0.4 µM", "result": 1.02},
      {"measurement": "relative viability", "setting": "HCC-827; first compound 1.265 µM", "result": 0.884},
      {"measurement": "relative viability", "setting": "NCI-H596; first compound 0.04 µM", "result": 0.935},
      {"measurement": "relative viability", "setting": "NCI-H596; first compound 0.1265 µM", "result": 0.982},
      {"measurement": "relative viability", "setting": "NCI-H596; first compound 0.4 µM", "result": 1.02},
      {"measurement": "relative viability", "setting": "NCI-H596; first compound 1.265 µM", "result": 1.06},
      {"measurement": "relative viability", "setting": "HCC-15; first compound 0.04 µM", "result": 0.985},
      {"measurement": "relative viability", "setting": "HCC-15; first compound 0.1265 µM", "result": 1.05},
      {"measurement": "relative viability", "setting": "HCC-15; first compound 0.4 µM", "result": 1.08},
      {"measurement": "relative viability", "setting": "HCC-15; first compound 1.265 µM", "result": 0.731},
      {"measurement": "relative viability", "setting": "HCC-44; first compound 0.04 µM", "result": 0.945},
      {"measurement": "relative viability", "setting": "HCC-44; first compound 0.1265 µM", "result": 0.866},
      {"measurement": "relative viability", "setting": "HCC-44; first compound 0.4 µM", "result": 0.886},
      {"measurement": "relative viability", "setting": "HCC-44; first compound 1.265 µM", "result": 0.908},
      {"measurement": "relative viability", "setting": "NCI-H23; first compound 0.04 µM", "result": 1.05},
      {"measurement": "relative viability", "setting": "NCI-H23; first compound 0.1265 µM", "result": 1.21},
      {"measurement": "relative viability", "setting": "NCI-H23; first compound 0.4 µM", "result": 0.958},
      {"measurement": "relative viability", "setting": "NCI-H23; first compound 1.265 µM", "result": 1.11},
      {"measurement": "relative viability", "setting": "NCI-H1792; first compound 0.04 µM", "result": 0.933},
      {"measurement": "relative viability", "setting": "NCI-H1792; first compound 0.1265 µM", "result": 1.13},
      {"measurement": "relative viability", "setting": "NCI-H1792; first compound 0.4 µM", "result": 1.04},
      {"measurement": "relative viability", "setting": "NCI-H1792; first compound 1.265 µM", "result": 0.912},
      {"measurement": "relative viability", "setting": "COR-L 105; first compound 0.04 µM", "result": 0.775},
      {"measurement": "relative viability", "setting": "COR-L 105; first compound 0.1265 µM", "result": 0.78},
      {"measurement": "relative viability", "setting": "COR-L 105; first compound 0.4 µM", "result": 0.788},
      {"measurement": "relative viability", "setting": "COR-L 105; first compound 1.265 µM", "result": 0.819},
      {"measurement": "relative viability", "setting": "NCI-H1437; first compound 0.04 µM", "result": 0.523},
      {"measurement": "relative viability", "setting": "NCI-H1437; first compound 0.1265 µM", "result": 0.683},
      {"measurement": "relative viability", "setting": "NCI-H1437; first compound 0.4 µM", "result": 0.446},
      {"measurement": "relative viability", "setting": "NCI-H1437; first compound 1.265 µM", "result": 0.238},
      {"measurement": "relative viability", "setting": "BEN; first compound 0.04 µM", "result": 0.721},
      {"measurement": "relative viability", "setting": "BEN; first compound 0.1265 µM", "result": 0.778},
      {"measurement": "relative viability", "setting": "BEN; first compound 0.4 µM", "result": 0.907},
      {"measurement": "relative viability", "setting": "BEN; first compound 1.265 µM", "result": 0.796}
    ]}
  ]
}
